Laboratory results reported in US4642379A, “Intermediates for anticonvulsant agents” (Eli Lilly and Company, priority 1985, dated 1987).

Test system: not given
Assay: not given
Conditions: man; cited from earlier work
For `O=C1NC(=O)C(c2ccccc2)(c2ccccc2)N1` [phenytoin], the “plasma level at which ataxia is obvious” value is given as 30 µg/mL, the “plasma level at which lethargy is apparent” value is given as “about 40 mcg/ml” and the “plasma level at which nystagmus is seen” value is given as “around 20 mcg/ml”. The “plasma level at which seizures are controlled” value was at least 10 µg/mL.

Test system: electroshock induced convulsion
Assay: electroshock induced convulsion inhibition assay (E.S.)
Type: in vivo, mice (Cox standard strain albino male)
Conditions: Mus musculus; oral dose (gavage), mice; 0.1 second, 50 milliampere electroshock through corneal electrodes; at time of optimal response
Method: In the elctroshock induced convulsion inhibition assay (E.S.), the compound to be tested was suspended in acacia and administered by gavage to each of ten Cox standard strain albino male mice (18-24 g) at the dose level being investigated. […] The animals were examined and evaluated immediately after the electroshock for the occurrence of clonic, flexor tonic, or extensor tonic convulsions, or death and the ED50 was determined for each compound as the dose which inhibited the occurrence of extensor tonic convulsions in one half of the animals immediately after the electroshock.
Compound `CC(=O)Nc1ccc(C(=O)Nc2c(C)cccc2C)cc1` [Example 1, 4-(Acetylamino)-N-(2,6-dimethylphenyl)benzamide] has an ED50 of 3.6 mg/kg. `CCC(=O)Nc1ccc(C(=O)Nc2c(C)cccc2C)cc1` [Example 2, N-(2,6-dimethylphenyl)-4-[(1-oxopropyl)amino]benzamide] showed an ED50 of 10.5 mg/kg. Compound `Cc1cccc(C)c1NC(=O)c1ccc(NC(=O)C(C)C)cc1` [Example 3, N-(2,6-dimethylphenyl)-4-[(2-methyl-1-oxopropyl)amino]benzamide] has an ED50 of 8.2 mg/kg. Work on `CC(=O)Nc1ccc(C(=O)N[C@@H](C)c2ccccc2)cc1` [Example 4, (S)-4-(acetylamino)-N-(1-phenylethyl)benzamide] yielded an ED50 of 22.2 mg/kg. `CC(=O)Nc1ccc(C(=O)NC(C)c2ccccc2)cc1` (stereo not drawn) [Example 6, 4-(Acetylamino)-N-(1-phenylethyl)benzamide] gave an ED50 of 54 mg/kg. In the case of `CC(=O)Nc1ccc(C(=O)Nc2c(C)cccc2C)cc1C` [Example 11, 4-(Acetylamino)-N-(2,6-dimethylphenyl)-3-methylbenzamide], the ED50 is reported as 4.5 mg/kg. `Cc1cccc(C)c1NC(=O)c1ccc(NC(=O)CN(C)C)cc1` [Example 12, 4-([(Dimethylamino)acetyl]amino)-N-(2,6-dimethylphenyl)benzamide] showed an ED50 of 8 mg/kg. `CNCC(=O)Nc1ccc(C(=O)Nc2c(C)cccc2C)cc1.O=C(O)C(=O)O` [Example 13, N-(2,6-dimethylphenyl)-4-([(methylamino)acetyl]amino)benzamide ethanedioate] gave an ED50 of 6.3 mg/kg. `CCN(CC)CC(=O)Nc1ccc(C(=O)Nc2c(C)cccc2C)cc1.O=C(O)C(=O)O` [Example 14, 4-([(Diethylamino)acetyl]amino)-N-(2,6-dimethylphenyl)benzamide ethanedioate] showed an ED50 of 3.6 mg/kg. Compound `Cc1cccc(C)c1NC(=O)c1ccc(NC(=O)CN2CCCCC2)cc1` [Example 15, N-[4-([(2,6-Dimethylphenyl)amino]carbonyl)phenyl]-1-piperidineacetamide] has an ED50 of 9.5 mg/kg. In the case of `Cc1cccc(C)c1NC(=O)c1ccc(NC(=O)CN2CCCC2)cc1` [Example 16, N-[4-([(2,6-Dimethylphenyl)amino]carbonyl)phenyl]-1-pyrrolidineacetamide], the ED50 is reported as 3.75 mg/kg. `Cc1cccc(C)c1NC(=O)c1ccc(NC(=O)CN2CCN(C)CC2)cc1` [Example 17, N-[4-([(2,6-Dimethylphenyl)amino]carbonyl)phenyl]-4-methyl-1-piperazineacetamide] showed an ED50 of over 112 mg/kg. `Cc1cccc(C)c1NC(=O)c1ccc(NC(=O)CN2CCOCC2)cc1` [Example 18, N-[4-([(2,6-Dimethylphenyl)amino]carbonyl)phenyl]-4-morpholineacetamide] showed an ED50 of 17.5 mg/kg. Compound `Cc1cccc(C)c1NC(=O)c1ccc(NC(=O)CCN2CCCC2)cc1` [Example 19, N-[4-([(2,6-Dimethylphenyl)amino]carbonyl)phenyl]-1-pyrrolidinepropanamide] has an ED50 of 26.9 mg/kg. Compound `Cc1cccc(C)c1NC(=O)c1ccc(NC(=O)C(C)N2CCCC2)cc1` (stereo not drawn) [Example 20] has an ED50 of 42.5 mg/kg. Compound `Cc1cccc(C)c1NC(=O)c1ccc(NC(=O)CN2CCCCCC2)cc1` [Example 21, N-[4-([(2,6-Dimethylphenyl)amino]carbonyl)phenyl]hexahydro-1-H-azepine-1-acetamide] has an ED50 of 5.1 mg/kg. `CCNCC(=O)Nc1ccc(C(=O)NC(C)c2ccccc2)cc1.Cl` (stereo not drawn) [Example 22, 4-([(Ethylamino)acetyl]amino)-N-(1-phenylethyl)benzamide hydrochloride] showed an ED50 of 28 mg/kg. `CCNCC(=O)Nc1ccc(C(=O)Nc2c(C)cccc2C)cc1` [Example 23, N-(2,6-Dimethylphenyl)-4-([(ethylamino)acetyl]amino)benzamide] gave an ED50 of 3.2 mg/kg.

Same assay, conditions: oral dose (gavage), mice; 0.1 second, 50 milliampere electroshock through corneal electrodes; at time of optimal response
In the case of `CC(=O)Nc1ccc(C(=O)N[C@H](C)c2ccccc2)cc1` [Example 5], the “Electroshock ED50 (mg/kg)” value is reported as “ca. 100 mg/kg”.

Same assay, conditions: time between oral dosing and electroshock
In the case of `CC(=O)Nc1ccc(C(=O)N[C@H](C)c2ccccc2)cc1` [Example 5], the “Time After dosing (minutes) providing an optimal response” value is reported as 60 min.
